Format in all cases: functional
The target of one experiment is Melanocortin receptor 5 (Mus musculus, UniProt P41149). Put plainly: In vitro agonist potency for Mouse Melanocortin 5 receptor.
Another experiment concerns the target Melanocortin receptor 4 (Mus musculus, UniProt P56450). Kind of experiment: In vitro agonist potency for Mouse Melanocortin 4 receptor.
The next experiment has as its target Melanocortin receptor 3 (Mus musculus, UniProt P33033). Put plainly: In vitro agonist potency for Mouse Melanocortin 3 receptor.
Experiment [1] concerns the target Melanocyte-stimulating hormone receptor (Mus musculus, UniProt Q01727). Kind of experiment: In vitro agonist potency for Mouse Melanocortin 1 receptor.

Each structure is given as a SMILES string.

Chain of Melanocyte-stimulating hormone receptor (Q01727 whole entry): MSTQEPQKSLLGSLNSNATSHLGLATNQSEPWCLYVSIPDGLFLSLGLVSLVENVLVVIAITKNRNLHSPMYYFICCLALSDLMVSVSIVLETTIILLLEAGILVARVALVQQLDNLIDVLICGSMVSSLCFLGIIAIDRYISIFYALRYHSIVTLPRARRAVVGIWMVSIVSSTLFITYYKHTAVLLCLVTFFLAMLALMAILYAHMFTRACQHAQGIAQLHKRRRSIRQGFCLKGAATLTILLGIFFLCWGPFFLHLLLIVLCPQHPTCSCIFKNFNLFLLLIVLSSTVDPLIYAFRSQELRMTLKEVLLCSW
Chain of Melanocortin receptor 5 (P41149 whole entry): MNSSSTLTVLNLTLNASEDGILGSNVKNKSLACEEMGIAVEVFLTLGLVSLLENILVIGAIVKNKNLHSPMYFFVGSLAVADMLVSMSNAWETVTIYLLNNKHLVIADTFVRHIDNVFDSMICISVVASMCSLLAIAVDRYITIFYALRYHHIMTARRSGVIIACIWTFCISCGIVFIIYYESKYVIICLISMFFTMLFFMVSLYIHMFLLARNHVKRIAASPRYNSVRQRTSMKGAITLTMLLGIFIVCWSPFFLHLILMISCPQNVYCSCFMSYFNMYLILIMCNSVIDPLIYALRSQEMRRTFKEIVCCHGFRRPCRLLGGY
Chain of Melanocortin receptor 3 (P33033 whole entry): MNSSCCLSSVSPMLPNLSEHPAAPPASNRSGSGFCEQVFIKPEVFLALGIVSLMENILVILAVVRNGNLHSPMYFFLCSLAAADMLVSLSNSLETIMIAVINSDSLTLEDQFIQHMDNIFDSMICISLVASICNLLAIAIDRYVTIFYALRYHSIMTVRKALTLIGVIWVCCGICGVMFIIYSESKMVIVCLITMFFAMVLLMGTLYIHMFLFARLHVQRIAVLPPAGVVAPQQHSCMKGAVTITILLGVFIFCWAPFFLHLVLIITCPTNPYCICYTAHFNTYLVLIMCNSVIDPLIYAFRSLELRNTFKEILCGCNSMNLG
Chain of Melanocortin receptor 4 (P56450 whole entry): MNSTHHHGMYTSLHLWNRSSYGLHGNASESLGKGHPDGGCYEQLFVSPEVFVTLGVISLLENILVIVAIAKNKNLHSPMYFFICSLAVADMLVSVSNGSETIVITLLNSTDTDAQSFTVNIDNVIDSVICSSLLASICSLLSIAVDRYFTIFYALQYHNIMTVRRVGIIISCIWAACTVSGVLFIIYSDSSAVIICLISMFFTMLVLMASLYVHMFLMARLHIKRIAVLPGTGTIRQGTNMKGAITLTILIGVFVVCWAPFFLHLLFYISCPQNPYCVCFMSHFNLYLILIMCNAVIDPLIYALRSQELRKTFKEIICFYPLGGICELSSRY

The EC50 is the concentration needed to bring the measured effect to its halfway point. Lower therefore signals higher potency in that assay. Turning to `CCCCCCCCCCCCC(=O)N[C@@H](Cc1cnc[nH]1)C(=O)N[C@H](Cc1ccccc1)C(=O)N[C@@H](CCCNC(=N)N)C(=O)N[C@@H](Cc1c[nH]c2ccccc12)C(N)=O`, the EC50 on Melanocortin receptor 5 worked out at 4.43 nM; at Melanocortin receptor 4, 20.6 nM; on Melanocortin receptor 3 it was 139 nM; in experiment [1], 0.94 nM.

For `CCCCCCCC(=O)N[C@@H](Cc1c[nH]cn1)C(=O)N[C@H](Cc1ccccc1)C(=O)N[C@@H](CCCN=C(N)N)C(=O)N[C@@H](Cc1c[nH]c2ccccc12)C(N)=O`, the EC50 on Melanocortin receptor 5 was 0.57 nM; at Melanocortin receptor 4, 2.52 nM; on Melanocortin receptor 3, 9.29 nM; in experiment [1], 0.33 nM.

Consider `CCCCCCCCCCCCCCCCC(=O)N[C@@H](Cc1c[nH]cn1)C(=O)N[C@H](Cc1ccccc1)C(=O)N[C@@H](CCCN=C(N)N)C(=O)N[C@@H](Cc1c[nH]c2ccccc12)C(N)=O`, for which the EC50 at Melanocortin receptor 5 was 2.82 nM; at Melanocortin receptor 4 it was 21.4 nM; on Melanocortin receptor 3, 266 nM; in experiment [1], 0.72 nM.

Take `CCCCCCCCCCCCCCC(=O)N[C@@H](Cc1c[nH]cn1)C(=O)N[C@H](Cc1ccccc1)C(=O)N[C@@H](CCCN=C(N)N)C(=O)N[C@@H](Cc1c[nH]c2ccccc12)C(N)=O`: the EC50 on Melanocortin receptor 5 came to 3.02 nM; on Melanocortin receptor 4, 13.2 nM; on Melanocortin receptor 3 it was 134 nM; in experiment [1] it was 2.07 nM.

For `CCCCCCCCCCC(=O)N[C@@H](Cc1cnc[nH]1)C(=O)N[C@H](Cc1ccccc1)C(=O)N[C@@H](CCCNC(=N)N)C(=O)N[C@@H](Cc1c[nH]c2ccccc12)C(N)=O`, the EC50 at Melanocortin receptor 5 was 10 nM; on Melanocortin receptor 4, 19 nM; at Melanocortin receptor 3, 102 nM; in experiment [1] it was 2.8 nM.

On to `CCCCCCCCC(=O)N[C@@H](Cc1cnc[nH]1)C(=O)N[C@H](Cc1ccccc1)C(=O)N[C@@H](CCCNC(=N)N)C(=O)N[C@@H](Cc1c[nH]c2ccccc12)C(N)=O`, for which the concentration for a half-maximal effect (EC50) on Melanocortin receptor 5 is 0.88 nM; on Melanocortin receptor 4, 1.14 nM; on Melanocortin receptor 3, 5.1 nM; in experiment [1] it was 0.4 nM.

The molecule `CC(=O)N[C@@H](Cc1cnc[nH]1)C(=O)N[C@H](Cc1ccccc1)C(=O)N[C@@H](CCCN=C(N)N)C(=O)N[C@@H](Cc1c[nH]c2ccccc12)C(N)=O` displayed an EC50 at Melanocortin receptor 4 of 10.7 nM. In other words, the double-digit nanomolar range.

With `CCCCCCCCCCCCCCCC(=O)N[C@@H](Cc1cnc[nH]1)C(=O)N[C@H](Cc1ccccc1)C(=O)N[C@@H](CCCNC(=N)N)C(=O)N[C@@H](Cc1c[nH]c2ccccc12)C(N)=O`, the concentration giving a half-maximal response (EC50) was found to be 2.99 nM at Melanocortin receptor 5, 26.6 nM at Melanocortin receptor 4, 154 nM on Melanocortin receptor 3 and 0.99 nM in experiment [1].

As to `N=C(N)NCCC[C@H](NC(=O)[C@@H](Cc1ccccc1)NC(=O)[C@@H](N)Cc1cnc[nH]1)C(=O)N[C@@H](Cc1c[nH]c2ccccc12)C(N)=O`, the 50% effective concentration (EC50) on Melanocortin receptor 5 is 2.78 nM; at Melanocortin receptor 4 it was 18.5 nM; on Melanocortin receptor 3, 250 nM; in experiment [1] it was 67 nM.

Turning to `CCCCCCCCCCCCCC(=O)N[C@@H](Cc1c[nH]cn1)C(=O)N[C@H](Cc1ccccc1)C(=O)N[C@@H](CCCN=C(N)N)C(=O)N[C@@H](Cc1c[nH]c2ccccc12)C(N)=O`, the concentration giving a half-maximal response (EC50) is 3.39 nM on Melanocortin receptor 5, 10.5 nM on Melanocortin receptor 4, 220 nM at Melanocortin receptor 3 and 0.58 nM in experiment [1].

On to `CCCCCCCCCC(=O)N[C@@H](Cc1c[nH]cn1)C(=O)N[C@H](Cc1ccccc1)C(=O)N[C@@H](CCCN=C(N)N)C(=O)N[C@@H](Cc1c[nH]c2ccccc12)C(N)=O`, for which the EC50 on Melanocortin receptor 5 was found to be 4.83 nM; on Melanocortin receptor 4, 14.4 nM; on Melanocortin receptor 3, 44.8 nM; in experiment [1], 3.34 nM.

Source of the values: ChEMBL document CHEMBL1144419, “N-terminal fatty acylated His-dPhe-Arg-Trp-NH(2) tetrapeptides: influence of fatty acid chain length on potency and selectivity at the mouse melanocortin receptors and human melanocytes” (J Med Chem, 2005).
